Earlier results on one compound are cited in US6753298B2, “Agents for combating Neospora spec” (Bayer AG, priority 1997, dated 2004).

The data set has as its system Neospora. To be noted: experimentally infected mice; administered by drinking water.

As for `Nc1ccc(S(=O)(=O)Nc2ncccn2)cc1` [sulphadiazine], the in-vivo efficacy result is “effective only when the treatment was prophylactic”.
